Experimental data from article PMC4565880, “Purification and characterization of a novel β-carotene-9′,10′-oxygenase from Saccharomyces cerevisiae ULI3” (Biotechnology Letters, 2015).

The compounds below were run on T1, ScBCO2 (β-carotene-9′,10′-oxygenase) (assay: HPLC cleavage assay; Hanes-Woolf plot). Conditions: standard assay: 100 mM Tricine/KOH pH 8.0, 37 °C, 12.5 μM Fe2SO4, Tween 40; temperature of kinetic runs not stated; substrate 10-800 μM.
T1 construct: native enzyme purified from culture supernatant (ammonium sulfate, Q Sepharose, Superdex-200); ~50 kDa by SDS-PAGE; peptide mass fingerprint matched no database entry
Type: biochemical, Saccharomyces cerevisiae
Description: HPLC cleavage assay; Hanes-Woolf plot on ScBCO2 (β-carotene-9′,10′-oxygenase)

Km [µM] | SMILES
105 ± 0.3 | CC1=C[C@H](O)CC(C)(C)[C@H]1/C=C/C(C)=C/C=C/C(C)=C/C=C/C=C(C)/C=C/C=C(C)/C=C/C1=C(C)C[C@@H](O)CC1(C)C [Lutein]
48 ± 0.3 | CC1=CCCC(C)(C)[C@H]1/C=C/C(C)=C/C=C/C(C)=C/C=C/C=C(C)/C=C/C=C(C)/C=C/C1=C(C)CCCC1(C)C [α-carotene]
37 ± 0.2 | CC1=C(/C=C/C(C)=C/C=C/C(C)=C/C=C/C=C(C)/C=C/C=C(C)/C=C/C2=C(C)CCCC2(C)C)C(C)(C)CCC1 [β-carotene]
